Laboratory results from patent US20250073248A1, “BIORESORBABLE CATIONIC STEROIDAL ANTIMICROBIAL COMPOUNDS WITH GLYCERIDE LINKAGES” (BRIGHAM YOUNG UNIVERSITY, priority 2023, published 2025).
In brackets after ≈: the same amount, converted by molar mass.

Experiments:
[1] = test system: C. auris CDC 387; assay: MIC/MFC of CSA-4110, fungi (Table 4); type: cell-based, Candida auris; settings: Candidozyma auris, CDC387
Method: (§1) All compounds were screened against these pathogens to determine their minimum inhibitory concentration (MIC), minimum bactericidal concentration (MBC), and minimum fungicidal concentration (MFC) using a broth microdilution method. […] Of these three, only CSA-4110 was similarly active against PA01and CA, inhibiting growth at 8 μg/mL.
(§2) CSA-4110 was evaluated further against a broader range of bacterial and fungal strains. Acinetobacter baumannii and several isolates of Staphylococcus aureus, Klebsiella pneumoniae, and Candida auris were selected, further broadening the coverage of high and critical priority pathogens. Streptococcus uberis, Staphylococcus pseudintermedius, Proteus mirabilis, and Escherichia coli were also screened to obtain a more complete efficacy profile. […] For comparison, previous work established the MICs of CSA-131 against strains of Staphylococcus aureus, Pseudomonas aeruginosa, and Candida albicans at 0.5-2 μg/mL

[2] = test system: C. auris CDC 388; assay: MIC/MFC of CSA-4110, fungi (Table 4); type: cell-based, Candida auris; settings: Candidozyma auris, CDC388
Method: as §1, §2

[3] = test system: C. auris CDC 384; assay: MIC/MFC of CSA-4110, fungi (Table 4); type: cell-based, Candida auris; settings: Candidozyma auris, CDC384
Method: as §1, §2

[4] = test system: C. auris CDC 381; assay: MIC/MFC of CSA-4110, fungi (Table 4); type: cell-based, Candida auris; settings: Candidozyma auris, CDC381
Method: as §1, §2

[5] = test system: C. auris CDC 389; assay: MIC/MFC of CSA-4110, fungi (Table 4); type: cell-based, Candida auris; settings: Candidozyma auris, CDC389
Method: as §1, §2

[6] = test system: C. auris CDC 390; assay: MIC/MFC of CSA-4110, fungi (Table 4); type: cell-based, Candida auris; settings: Candidozyma auris, CDC390
Method: as §1, §2

[7] = test system: C. auris CDC 386; assay: MIC/MFC of CSA-4110, fungi (Table 4); type: cell-based, Candida auris; settings: Candidozyma auris, CDC386
Method: as §1, §2

[8] = test system: C. auris CDC 385; assay: MIC/MFC of CSA-4110, fungi (Table 4); type: cell-based, Candida auris; settings: Candidozyma auris, CDC385
Method: as §1, §2

[9] = test system: C. auris CDC 382; assay: MIC/MFC of CSA-4110, fungi (Table 4); type: cell-based, Candida auris; settings: Candidozyma auris, CDC382
Method: as §1, §2

[10] = test system: C. auris CDC 383; assay: MIC/MFC of CSA-4110, fungi (Table 4); type: cell-based, Candida auris; settings: Candidozyma auris, CDC383
Method: as §1, §2

[11] = test system: K. pneumoniae ATCC BAA-1706; assay: MIC/MBC of CSA-4110, Gram negative bacteria (Table 3); type: cell-based; settings: Klebsiella pneumoniae, ATCCBAA1706
Method: as §1, §2

[12] = test system: P. aeruginosa ATCC 27853; assay: as above; type: cell-based; settings: Pseudomonas aeruginosa, ATCC27853
Method: as §1, §2

[13] = test system: A. baumannii ATCC 19606; assay: as above; type: cell-based; settings: Acinetobacter baumannii, ATCC19606
Method: as §1, §2

[14] = test system: E. coli ATCC 25922; assay: as above; type: cell-based; settings: Escherichia coli, ATCC25922
Method: as §1, §2

[15] = test system: K. pneumoniae ATCC 13883; assay: as above; type: cell-based; settings: Klebsiella pneumoniae, ATCC13883
Method: as §1, §2

[16] = test system: K. pneumoniae ARLG 1360; assay: as above; type: cell-based; settings: Klebsiella pneumoniae, ARLG1360
Method: as §1, §2

[17] = test system: P. aeruginosa 01 ATCC 47085; assay: as above; type: cell-based; settings: Pseudomonas aeruginosa, ATCC47085
Method: as §1, §2

[18] = test system: S. uberis ATCC 27958; assay: MIC/MBC of CSA-4110, Gram positive bacteria (Table 2); type: cell-based; settings: Streptococcus uberis, ATCC27958
Method: as §1, §2

[19] = test system: S. aureus ATCC 27734; assay: as above; type: cell-based; settings: Staphylococcus aureus, ATCC27734
Method: as §1, §2

[20] = test system: S. aureus ATCC 25923; assay: as above; type: cell-based; settings: Staphylococcus aureus, ATCC25923
Method: as §1, §2

[21] = test system: MRSA ATCC BAA-42; assay: as above; type: cell-based; settings: Staphylococcus aureus
Method: as §1, §2

[22] = test system: S. psuedintermedius ATCC 49444; assay: as above; type: cell-based; settings: Staphylococcus pseudintermedius, ATCC49444
Method: as §1, §2

[23] = test system: S. aureus ATCC 6538; assay: as above; type: cell-based; settings: Staphylococcus aureus, ATCC6538
Method: as §1, §2

[24] = test system: broader range of bacterial and fungal strains; assay: CSA-4110 against a broader range of bacterial and fungal strains (summary of Tables 2-4); type: cell-based
Method: as §1, §2

[25] = test system: methicillin-resistant Staphylococcus aureus (MRSA); assay: Example 1 MIC/MBC (FIG. 1, FIG. 2), MRSA; type: cell-based
Method: The antimicrobial activities of CSA-4108, CSA-4110, CSA-4112, and CSA-4114 were determined relative to methicillin-resistant Staphylococcus aureus (MRSA), Pseudomonas aeruginosa (Pa), and Candida albicans 90028. The minimum inhibitory concentration (MIC) for CSA-4108, CSA-4110, CSA-4112, and CSA-4114 relative to the foregoing microbes is graphically reported in FIG. 1. The minimum bactericidal concentration (MBC) and minimum fungicidal concentration […] for CSA-4108, CSA-4110, CSA-4112, and CSA-4114 relative to the foregoing microbes are graphically reported in FIG. 2.

[26] = all strains of Tables 2-4 except Proteus mirabilis

SMILES: CCCCCCCCCC(=O)OCC(O)COC(=O)CC[C@@H](C)[C@H]1CC[C@H]2[C@@H]3[C@H](OC(=O)CCN)C[C@@H]4C[C@H](OC(=O)CCN)CC[C@]4(C)[C@H]3C[C@H](OC(=O)CCN)[C@]12C (stereo partly drawn) [CSA-4110]
- MBC [1]: 16 mg/L (≈ 18.8 µM)
- MIC [1]: 8 mg/L (≈ 9.41 µM)
- MBC [2]: 16 mg/L (≈ 18.8 µM)
- MIC [2]: 8 mg/L (≈ 9.41 µM)
- MBC [3]: 16 mg/L (≈ 18.8 µM)
- MIC [3]: 4 mg/L (≈ 4.71 µM)
- MBC [4]: 8 mg/L (≈ 9.41 µM)
- MIC [4]: 8 mg/L (≈ 9.41 µM)
- MBC [5]: 16 mg/L (≈ 18.8 µM)
- MIC [5]: 8 mg/L (≈ 9.41 µM)
- MBC [6]: 16 mg/L (≈ 18.8 µM)
- MIC [6]: 8 mg/L (≈ 9.41 µM)
- MBC [7]: 16 mg/L (≈ 18.8 µM)
- MIC [7]: 8 mg/L (≈ 9.41 µM)
- MBC [8]: 16 mg/L (≈ 18.8 µM)
- MIC [8]: 8 mg/L (≈ 9.41 µM)
- MBC [9]: 16 mg/L (≈ 18.8 µM)
- MIC [9]: 8 mg/L (≈ 9.41 µM)
- MBC [10]: 16 mg/L (≈ 18.8 µM)
- MIC [10]: 8 mg/L (≈ 9.41 µM)
- MBC [11]: 4 mg/L
- MIC [11]: 4 mg/L
- MBC [12]: 8 mg/L
- MIC [12]: 4 mg/L
- MBC [13]: 4 mg/L
- MIC [13]: 4 mg/L
- MBC [14]: 4 mg/L
- MIC [14]: 4 mg/L
- MBC [15]: 2 mg/L
- MIC [15]: 2 mg/L
- MBC [16]: 8 mg/L
- MIC [16]: 8 mg/L
- MBC [17]: 8 mg/L
- MIC [17]: 4 mg/L
- MBC [18]: 4 mg/L
- MIC [18]: 2 mg/L
- MBC [19]: 4 mg/L
- MIC [19]: 4 mg/L
- MBC [20]: 8 mg/L
- MIC [20]: 4 mg/L
- MBC [21]: 2 mg/L
- MIC [21]: 2 mg/L
- MBC [22]: 4 mg/L
- MIC [22]: 4 mg/L
- MBC [23]: 8 mg/L
- MIC [23]: 4 mg/L
- MBCs/MFCs, range over the strains [24, 26]: 2 to 16 µg/mL
- MICs, range over the strains [24, 26]: 2 to 8 µg/mL
- MICs, range as restated in the CMC paragraph ([24]; compared with CMC): 2 to 8 g/mL
- MBC (FIG. 2), ranking in words [25]: lowest MBC and MFC
- MIC (FIG. 1), ranking in words [25]: lowest MIC
